Measured values as given in PubChem BioAssay AID2060507 (Molecular Pharmacology Branch, DTP, NCI, 2025).

Test system: 519858-162-T-J1-PDC complex spheroid viability
Assay: Anticancer human tumor 519858-162-T-J1-PDC patient-derived colon adenocarcinoma cell line growth inhibition [GQUAD]
Conditions: for IC50: curve of first compound; for viability, T/C: stronger effect = lower value
How it was run: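 Tumor cells were grown as complex spheroids with HUVEC endothelial cells and mesenchymal stem cells as stroma. G-quadruplex stabilizers were combined with targeted agents over half-log dilutions from near the clinical Cmax, or from 10 microM.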

[1] = second compound 0.0316 µM, first compound 0.0316 µM
[2] = second compound 0.0316 µM, first compound 0.1 µM
[3] = second compound 0.0316 µM, first compound 0.316 µM
[4] = second compound 0.0316 µM, first compound 1 µM
[5] = second compound 0.0316 µM, first compound 3.16 µM
[6] = second compound 0.0316 µM, first compound 10 µM
[7] = second compound 0.1 µM, first compound 0.0316 µM
[8] = second compound 0.1 µM, first compound 0.1 µM
[9] = second compound 0.1 µM, first compound 0.316 µM
[10] = second compound 0.1 µM, first compound 1 µM
[11] = second compound 0.1 µM, first compound 3.16 µM
[12] = second compound 0.1 µM, first compound 10 µM
[13] = second compound 0.316 µM, first compound 0.0316 µM
[14] = second compound 0.316 µM, first compound 0.1 µM
[15] = second compound 0.316 µM, first compound 0.316 µM
[16] = second compound 0.316 µM, first compound 1 µM
[17] = second compound 0.316 µM, first compound 3.16 µM
[18] = second compound 0.316 µM, first compound 10 µM
[19] = second compound 1 µM, first compound 0.0316 µM
[20] = second compound 1 µM, first compound 0.1 µM
[21] = second compound 1 µM, first compound 0.316 µM
[22] = second compound 1 µM, first compound 1 µM
[23] = second compound 1 µM, first compound 3.16 µM
[24] = second compound 1 µM, first compound 10 µM
[25] = second compound 3.16 µM, first compound 0.0316 µM
[26] = second compound 3.16 µM, first compound 0.1 µM
[27] = second compound 3.16 µM, first compound 0.316 µM
[28] = second compound 3.16 µM, first compound 1 µM
[29] = second compound 3.16 µM, first compound 3.16 µM
[30] = second compound 3.16 µM, first compound 10 µM
[31] = second compound 10 µM, first compound 0.0316 µM
[32] = second compound 10 µM, first compound 0.1 µM
[33] = second compound 10 µM, first compound 0.316 µM
[34] = second compound 10 µM, first compound 1 µM
[35] = second compound 10 µM, first compound 3.16 µM
[36] = second compound 10 µM, first compound 10 µM
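Further: spheroids exposed to compounds for 7 days.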
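Wherever viability, T/C is given: 100% = DMSO vehicle control viability.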

In the case of `O=C(c1cc(Cc2n[nH]c(=O)c3ccccc23)ccc1F)N1CCN(C(=O)C2CC2)CC1` + Cc1[nH]c2ccc(F)cc2c1-c1nc2c3cccnc3c3ncccc3c2[nH]1, the IC50 (second compound 0.0316 µM) is reported as greater than 10 µM, the IC50 (second compound 0.1 µM) is reported as greater than 10 µM and the IC50 (second compound 0.316 µM) is reported as greater than 10 µM. For the same compound, the IC50 (second compound 1 µM) was greater than 10 µM, the IC50 (second compound 3.16 µM) was less than 0.0316 µM and the IC50 (second compound 10 µM) was greater than 10 µM. It also gave a viability, T/C [1] of 122%, a viability, T/C [2] of 85.5% and a viability, T/C [3] of 82.7%. It also gave a viability, T/C [4] of 66.6%, a viability, T/C [5] of 68% and a viability, T/C [6] of 111%. It also gave a viability, T/C [7] of 110%, a viability, T/C [8] of 85.3% and a viability, T/C [9] of 87.7%. The viability, T/C [10] was 102%, the viability, T/C [11] was 103% and the viability, T/C [12] was 63.6%. It also gave a viability, T/C [13] of 105%, a viability, T/C [14] of 97.9% and a viability, T/C [15] of 81.9%. The viability, T/C [16] was 100%, the viability, T/C [17] was 75.6% and the viability, T/C [18] was 97.1%. For the same compound, the viability, T/C [19] was 82.7%, the viability, T/C [20] was 100% and the viability, T/C [21] was 102%. For the same compound, the viability, T/C [22] was 81.2%, the viability, T/C [23] was 69.9% and the viability, T/C [24] was 95.3%. For the same compound, the viability, T/C [25] was 49.2%, the viability, T/C [26] was 63% and the viability, T/C [27] was 92%. For the same compound, the viability, T/C [28] was 59.2%, the viability, T/C [29] was 79.8% and the viability, T/C [30] was 71.1%. It also gave a viability, T/C [31] of 86.1%, a viability, T/C [32] of 69.9% and a viability, T/C [33] of 52.6%. For the same compound, the viability, T/C [34] was 81.6%, the viability, T/C [35] was 51.8% and the viability, T/C [36] was 53.7%.

`C=CCn1c(=O)c2cnc(Nc3ccc(N4CCN(C)CC4)cc3)nc2n1-c1cccc(C(C)(C)O)n1` + CN(C)c1ccc(Nc2c3ccc(NC(=O)CCN4CCCC4)cc3nc3cc(NC(=O)CCN4CCCC4)ccc23)cc1 showed an IC50 (second compound 0.0316 µM) greater than 10 µM, an IC50 (second compound 0.1 µM) greater than 10 µM and an IC50 (second compound 0.316 µM) greater than 10 µM. The IC50 (second compound 1 µM) was greater than 10 µM, the IC50 (second compound 3.16 µM) was greater than 10 µM and the IC50 (second compound 10 µM) was greater than 10 µM. It also gave a viability, T/C [1] of 95.3%, a viability, T/C [2] of 120% and a viability, T/C [3] of 117%. For the same compound, the viability, T/C [4] was 83.3%, the viability, T/C [5] was 75.2% and the viability, T/C [6] was 120%. The viability, T/C [7] was 150%, the viability, T/C [8] was 86.8% and the viability, T/C [9] was 92.5%. The viability, T/C [10] was 64.6%, the viability, T/C [11] was 88.4% and the viability, T/C [12] was 67.6%. For the same compound, the viability, T/C [13] was 112%, the viability, T/C [14] was 89.7% and the viability, T/C [15] was 88.9%. The viability, T/C [16] was 63.8%, the viability, T/C [17] was 85.1% and the viability, T/C [18] was 104%. The viability, T/C [19] was 72.3%, the viability, T/C [20] was 74.7% and the viability, T/C [21] was 61.4%. The viability, T/C [22] was 65%, the viability, T/C [23] was 80.4% and the viability, T/C [24] was 80.2%. For the same compound, the viability, T/C [25] was 77.7%, the viability, T/C [26] was 62% and the viability, T/C [27] was 66.7%. For the same compound, the viability, T/C [28] was 67.6%, the viability, T/C [29] was 62.1% and the viability, T/C [30] was 91.1%. For the same compound, the viability, T/C [31] was 78%, the viability, T/C [32] was 63.8% and the viability, T/C [33] was 57.7%. It also gave a viability, T/C [34] of 62%, a viability, T/C [35] of 89.3% and a viability, T/C [36] of 137%.

Compound `CC(C)n1c(=O)n(C)c2cnc3cc(F)c(-c4ccc(OCCCN5CCCCC5)nc4)cc3c21` + Cc1cnc(CNC(=O)c2c(=O)c3ccc(N4CCCN(C)CC4)nc3n3c2sc2ccccc23)cn1 has an IC50 (second compound 0.0316 µM) greater than 10 µM, an IC50 (second compound 0.1 µM) greater than 10 µM and an IC50 (second compound 0.316 µM) of 10 µM. For the same compound, the IC50 (second compound 1 µM) was less than 0.0316 µM, the IC50 (second compound 3.16 µM) was less than 0.0316 µM and the IC50 (second compound 10 µM) was less than 0.0316 µM. The viability, T/C [1] was 55.4%, the viability, T/C [2] was 61.4% and the viability, T/C [3] was 73.1%. It also gave a viability, T/C [4] of 53.7%, a viability, T/C [5] of 70.2% and a viability, T/C [6] of 66.4%. It also gave a viability, T/C [7] of 66.8%, a viability, T/C [8] of 47.8% and a viability, T/C [9] of 64.3%. For the same compound, the viability, T/C [10] was 60.6%, the viability, T/C [11] was 56.3% and the viability, T/C [12] was 54.6%. It also gave a viability, T/C [13] of 66.7%, a viability, T/C [14] of 68.9% and a viability, T/C [15] of 52.3%. For the same compound, the viability, T/C [16] was 48.5%, the viability, T/C [17] was 49.8% and the viability, T/C [18] was 61%. It also gave a viability, T/C [19] of 44.2%, a viability, T/C [20] of 45.9% and a viability, T/C [21] of 44.2%. For the same compound, the viability, T/C [22] was 46.7%, the viability, T/C [23] was 44.1% and the viability, T/C [24] was 43%. The viability, T/C [25] was 35.6%, the viability, T/C [26] was 25.4% and the viability, T/C [27] was 54.8%. The viability, T/C [28] was 44.1%, the viability, T/C [29] was 60.2% and the viability, T/C [30] was 51.5%. The viability, T/C [31] was 37.1%, the viability, T/C [32] was 43.6% and the viability, T/C [33] was 46.7%. It also gave a viability, T/C [34] of 52.5%, a viability, T/C [35] of 59.7% and a viability, T/C [36] of 68.8%.

Compound `CC(=O)O[C@H]1C(=O)[C@@]2(C)[C@H]([C@H](OC(=O)c3ccccc3)[C@]3(O)C[C@H](OC(=O)[C@H](O)[C@@H](NC(=O)c4ccccc4)c4ccccc4)C(C)=C1C3(C)C)[C@]1(OC(C)=O)CO[C@@H]1C[C@@H]2O` + CN(C)c1ccc(Nc2c3ccc(NC(=O)CCN4CCCC4)cc3nc3cc(NC(=O)CCN4CCCC4)ccc23)cc1 has an IC50 (second compound 0.0316 µM) greater than 10 µM, an IC50 (second compound 0.1 µM) greater than 10 µM and an IC50 (second compound 0.316 µM) greater than 10 µM. It also gave an IC50 (second compound 1 µM) greater than 10 µM, an IC50 (second compound 3.16 µM) greater than 10 µM and an IC50 (second compound 10 µM) greater than 10 µM. It also gave a viability, T/C [1] of 84.6%, a viability, T/C [2] of 95.5% and a viability, T/C [3] of 137%. It also gave a viability, T/C [4] of 86.5%, a viability, T/C [5] of 61.9% and a viability, T/C [6] of 119%. The viability, T/C [7] was 74.1%, the viability, T/C [8] was 134% and the viability, T/C [9] was 89.5%. It also gave a viability, T/C [10] of 82%, a viability, T/C [11] of 111% and a viability, T/C [12] of 98.4%. It also gave a viability, T/C [13] of 89.7%, a viability, T/C [14] of 86.5% and a viability, T/C [15] of 96.8%. It also gave a viability, T/C [16] of 69.7%, a viability, T/C [17] of 92% and a viability, T/C [18] of 115%. For the same compound, the viability, T/C [19] was 87.4%, the viability, T/C [20] was 74.9% and the viability, T/C [21] was 70.7%. It also gave a viability, T/C [22] of 64.5%, a viability, T/C [23] of 84.8% and a viability, T/C [24] of 86.3%. For the same compound, the viability, T/C [25] was 79.1%, the viability, T/C [26] was 68.1% and the viability, T/C [27] was 70.8%. It also gave a viability, T/C [28] of 55.3%, a viability, T/C [29] of 75.9% and a viability, T/C [30] of 84.6%. It also gave a viability, T/C [31] of 68.2%, a viability, T/C [32] of 62.4% and a viability, T/C [33] of 63.9%. The viability, T/C [34] was 55.1%, the viability, T/C [35] was 80.3% and the viability, T/C [36] was 72.7%.
